Assay results as given in ChEMBL document CHEMBL1201862, “PubChem BioAssay data set” (2004).
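Cells were grown in 96-well plates and exposed to each compound for 48 hours at five concentrations; endpoints were interpolated linearly between bracketing concentrations, or set to the highest concentration if not reached. GI50 = concentration required for 50% inhibition of growth.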 The source made the active and inactive calls. Cut-off read from the data, not from the text of the source: active = GI50 up to about 1.1 µM and inactive = higher.

Columns and labels:
Test in all cases: DTP human tumour cell line panel, 48 h
[1] = tested on: 786-0
[2] = tested on: A549
[3] = tested on: ACHN
[4] = tested on: BT-549
[5] = tested on: CCRF-CEM
[6] = tested on: COLO 205
[7] = tested on: DU-145
[8] = tested on: EKVX
[9] = tested on: HCC 2998
[10] = tested on: HCT-116
[11] = tested on: HCT-15
[12] = tested on: HL-60
[13] = tested on: HOP-62
[14] = tested on: HT-29
[15] = tested on: Hs-578T
[16] = tested on: IGROV-1
[17] = tested on: K562
[18] = tested on: KM12
[19] = tested on: LOX IMVI
[20] = tested on: M14
[21] = tested on: MCF7
[22] = tested on: MDA-MB-231
[23] = tested on: MDA-MB-435
[24] = tested on: MDA-N
[25] = tested on: MOLT-4
[26] = tested on: Malme-3M
[27] = tested on: NCI-H226
[28] = tested on: NCI-H23
[29] = tested on: NCI-H460
[30] = tested on: NCI-H522
[31] = tested on: NCI/ADR-RES
[32] = tested on: OVCAR-3
[33] = tested on: OVCAR-5
[34] = tested on: OVCAR-8
[35] = tested on: PC-3
[36] = tested on: RPMI-8226
[37] = tested on: RXF 393
[38] = tested on: SF-268
[39] = tested on: SF-295
[40] = tested on: SF-539
[41] = tested on: SK-MEL-28
[42] = tested on: SK-MEL-2
[43] = tested on: SK-MEL-5
[44] = tested on: SN12C
[45] = tested on: SNB-19
[46] = tested on: SNB-75
[47] = tested on: SR
[48] = tested on: SW-620
[49] = tested on: TK-10
[50] = tested on: U-251
[51] = tested on: UACC-257
[52] = tested on: UACC-62
[53] = tested on: UO-31
[54] = tested on: A498
[55] = tested on: HOP-92

[N-]=[N+]=C(C(=O)CN1CCCC1=O)S(=O)(=O)c1ccccc1
GI50 [1]: > 100 µM (inactive)
GI50 [2]: > 100 µM (inactive)
GI50 [3]: > 100 µM (inactive)
GI50 [4]: > 100 µM (inactive)
GI50 [5]: > 100 µM (inactive)
GI50 [6]: > 100 µM (inactive)
GI50 [7]: > 100 µM (inactive)
GI50 [8]: > 100 µM (inactive)
GI50 [9]: > 100 µM (inactive)
GI50 [10]: > 100 µM (inactive)
GI50 [11]: > 100 µM
GI50 [12]: > 100 µM (inactive)
GI50 [13]: > 100 µM (inactive)
GI50 [14]: > 100 µM (inactive)
GI50 [15]: > 100 µM (inactive)
GI50 [16]: > 100 µM (inactive)
GI50 [17]: > 100 µM (inactive)
GI50 [18]: > 100 µM (inactive)
GI50 [19]: > 100 µM (inactive)
GI50 [20]: > 100 µM (inactive)
GI50 [21]: > 100 µM (inactive)
GI50 [22]: > 100 µM (inactive)
GI50 [23]: > 100 µM (inactive)
GI50 [24]: > 100 µM (inactive)
GI50 [25]: > 100 µM (inactive)
GI50 [26]: > 100 µM (inactive)
GI50 [27]: > 100 µM (inactive)
GI50 [28]: > 100 µM (inactive)
GI50 [29]: > 100 µM (inactive)
GI50 [30]: > 100 µM (inactive)
GI50 [31]: > 100 µM (inactive)
GI50 [32]: > 100 µM (inactive)
GI50 [33]: > 100 µM (inactive)
GI50 [34]: > 100 µM (inactive)
GI50 [35]: > 100 µM (inactive)
GI50 [36]: > 100 µM (inactive)
GI50 [37]: > 100 µM (inactive)
GI50 [38]: > 100 µM (inactive)
GI50 [39]: > 100 µM (inactive)
GI50 [40]: > 100 µM (inactive)
GI50 [41]: > 100 µM (inactive)
GI50 [42]: > 100 µM (inactive)
GI50 [43]: > 100 µM (inactive)
GI50 [44]: > 100 µM (inactive)
GI50 [45]: > 100 µM (inactive)
GI50 [46]: > 100 µM (inactive)
GI50 [47]: > 100 µM (inactive)
GI50 [48]: > 100 µM (inactive)
GI50 [49]: > 100 µM (inactive)
GI50 [50]: > 100 µM (inactive)
GI50 [51]: > 100 µM (inactive)
GI50 [52]: > 100 µM (inactive)
GI50 [53]: > 100 µM (inactive)

Nc1c2c(nc3ccccc13)CCCCCC2
GI50 [1]: 16.4 µM (inactive)
GI50 [54]: 20.7 µM (inactive)
GI50 [3]: 27.1 µM (inactive)
GI50 [4]: 84.5 µM (inactive)
GI50 [5]: 15.6 µM (inactive)
GI50 [6]: 14.2 µM (inactive)
GI50 [9]: 14.4 µM (inactive)
GI50 [10]: 20.8 µM (inactive)
GI50 [11]: 30.3 µM
GI50 [12]: 7.26 µM (inactive)
GI50 [55]: 13.6 µM (inactive)
GI50 [15]: 38.5 µM (inactive)
GI50 [16]: 22.4 µM (inactive)
GI50 [17]: 21.5 µM (inactive)
GI50 [19]: 16 µM (inactive)
GI50 [21]: 26.9 µM (inactive)
GI50 [22]: 18.5 µM (inactive)
GI50 [24]: 16.5 µM (inactive)
GI50 [25]: 27.2 µM (inactive)
GI50 [26]: 18 µM (inactive)
GI50 [27]: 43.3 µM (inactive)
GI50 [28]: 42.1 µM (inactive)
GI50 [29]: 16.6 µM (inactive)
GI50 [30]: 19.6 µM (inactive)
GI50 [31]: 37.5 µM (inactive)
GI50 [34]: 30.4 µM (inactive)
GI50 [35]: 20.8 µM (inactive)
GI50 [36]: 19.1 µM (inactive)
GI50 [38]: 39.3 µM (inactive)
GI50 [40]: 16.1 µM (inactive)
GI50 [41]: 13.8 µM (inactive)
GI50 [42]: 13.7 µM (inactive)
GI50 [43]: 17.5 µM (inactive)
GI50 [44]: 40.7 µM (inactive)
GI50 [47]: 15.7 µM (inactive)
GI50 [48]: 17.1 µM (inactive)
GI50 [49]: 15.2 µM (inactive)
GI50 [50]: 26.8 µM (inactive)
GI50 [51]: 15.4 µM (inactive)
GI50 [52]: 16.6 µM (inactive)
